# Experiments:
# [1] = target: Fibroblast growth factor receptor 3 (Homo sapiens) (UniProt P22607); conditions: Compound concentration 1000.0 nM
# [2] = target: Serine/threonine-protein kinase haspin (Homo sapiens) (UniProt Q8TF76); conditions: Compound concentration 1000.0 nM
# [3] = target: Cyclin-dependent kinase 2 homolog (Plasmodium falciparum (isolate 3D7)) (UniProt P61075); conditions: Compound concentration 1000.0 nM
# [4] = tested on: Mast/stem cell growth factor receptor Kit (Homo sapiens), P10721 [D816V]; conditions: Compound concentration 1000.0 nM
# Sequence of Mast/stem cell growth factor receptor Kit (Homo sapiens), P10721 [D816V] (P10721 whole entry D816V): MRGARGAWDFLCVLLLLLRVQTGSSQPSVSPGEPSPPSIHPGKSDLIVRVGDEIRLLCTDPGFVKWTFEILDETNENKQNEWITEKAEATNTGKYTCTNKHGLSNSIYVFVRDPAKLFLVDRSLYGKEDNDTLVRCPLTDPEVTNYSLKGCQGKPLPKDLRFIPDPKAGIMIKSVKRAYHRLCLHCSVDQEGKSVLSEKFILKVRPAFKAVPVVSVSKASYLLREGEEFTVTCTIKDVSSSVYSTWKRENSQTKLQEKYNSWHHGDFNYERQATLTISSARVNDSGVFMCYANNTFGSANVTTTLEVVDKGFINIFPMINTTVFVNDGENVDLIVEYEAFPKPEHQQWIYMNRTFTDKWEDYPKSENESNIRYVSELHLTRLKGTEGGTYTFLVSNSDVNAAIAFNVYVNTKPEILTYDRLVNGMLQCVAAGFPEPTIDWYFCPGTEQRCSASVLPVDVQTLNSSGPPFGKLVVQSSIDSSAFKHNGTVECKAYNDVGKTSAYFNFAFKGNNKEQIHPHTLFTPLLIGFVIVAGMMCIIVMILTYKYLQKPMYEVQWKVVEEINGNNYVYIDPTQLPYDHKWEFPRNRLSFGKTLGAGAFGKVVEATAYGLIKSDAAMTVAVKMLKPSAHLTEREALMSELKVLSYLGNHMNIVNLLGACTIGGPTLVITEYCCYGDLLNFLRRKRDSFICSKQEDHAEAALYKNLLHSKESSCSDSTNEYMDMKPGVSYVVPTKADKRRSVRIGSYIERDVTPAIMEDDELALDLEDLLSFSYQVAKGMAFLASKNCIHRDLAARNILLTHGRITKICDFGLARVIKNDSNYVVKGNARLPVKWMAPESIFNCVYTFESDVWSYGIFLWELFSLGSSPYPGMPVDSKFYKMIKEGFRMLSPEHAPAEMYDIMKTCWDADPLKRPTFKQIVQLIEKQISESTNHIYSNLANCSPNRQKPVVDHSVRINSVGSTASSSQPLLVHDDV
# [5] = target: Proto-oncogene tyrosine-protein kinase receptor Ret (Homo sapiens) (UniProt P07949); conditions: Compound concentration 1000.0 nM
# [6] = target: Tyrosine-protein kinase ABL1 (Homo sapiens) (UniProt P00519); conditions: Compound concentration 1000.0 nM
# [7] = target: Serine/threonine-protein kinase NLK (Homo sapiens) (UniProt Q9UBE8); conditions: Compound concentration 1000.0 nM
# [8] = target: Serine/threonine-protein kinase SIK1 (Homo sapiens) (UniProt P57059); conditions: Compound concentration 1000.0 nM
# [9] = target: Leucine-rich repeat serine/threonine-protein kinase 2 (Homo sapiens) (UniProt Q5S007); conditions: Compound concentration 1000.0 nM
# [10] = target: 5'-AMP-activated protein kinase catalytic subunit alpha-1 (Homo sapiens) (UniProt Q13131); conditions: Compound concentration 1000.0 nM
# [11] = target: Activin receptor type-1B (Homo sapiens) (UniProt P36896); conditions: Compound concentration 1000.0 nM
# [12] = target: Dual specificity protein kinase CLK1 (Homo sapiens) (UniProt P49759); conditions: Compound concentration 1000.0 nM
# [13] = target: Serine/threonine-protein kinase Nek7 (Homo sapiens) (UniProt Q8TDX7); conditions: Compound concentration 1000.0 nM
# [14] = target: MAP/microtubule affinity-regulating kinase 3 (Homo sapiens) (UniProt P27448); conditions: Compound concentration 1000.0 nM
# [15] = target: Cyclin-dependent kinase 15 (Homo sapiens) (UniProt Q96Q40); conditions: Compound concentration 1000.0 nM
# Sequence of Cyclin-dependent kinase 15 (Homo sapiens) (Q96Q40 whole entry): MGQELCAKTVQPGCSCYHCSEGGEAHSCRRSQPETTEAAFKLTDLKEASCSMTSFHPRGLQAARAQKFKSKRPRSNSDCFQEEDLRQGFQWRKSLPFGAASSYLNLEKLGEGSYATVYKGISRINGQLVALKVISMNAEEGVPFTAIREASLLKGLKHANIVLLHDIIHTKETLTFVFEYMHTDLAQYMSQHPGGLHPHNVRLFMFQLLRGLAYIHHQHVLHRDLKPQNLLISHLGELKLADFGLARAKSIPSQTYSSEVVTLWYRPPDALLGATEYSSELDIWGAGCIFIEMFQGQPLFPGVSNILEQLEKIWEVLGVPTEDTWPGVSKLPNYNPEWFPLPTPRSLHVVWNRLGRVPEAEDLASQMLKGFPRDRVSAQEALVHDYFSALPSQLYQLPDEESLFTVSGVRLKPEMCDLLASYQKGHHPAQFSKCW
# [16] = target: Activated CDC42 kinase 1 (Homo sapiens) (UniProt Q07912); conditions: Compound concentration 1000.0 nM
# [17] = target: Serine/threonine-protein kinase/endoribonuclease IRE1 (Homo sapiens) (UniProt O75460); conditions: Compound concentration 1000.0 nM
# [18] = target: Serine/threonine-protein kinase 4 (Homo sapiens) (UniProt Q13043); conditions: Compound concentration 1000.0 nM
# [19] = target: 5-hydroxytryptamine receptor 1D (Homo sapiens) (UniProt P28221); conditions: Compound concentration 10.0 uM
# Sequence of 5-hydroxytryptamine receptor 1D (Homo sapiens) (P28221 whole entry): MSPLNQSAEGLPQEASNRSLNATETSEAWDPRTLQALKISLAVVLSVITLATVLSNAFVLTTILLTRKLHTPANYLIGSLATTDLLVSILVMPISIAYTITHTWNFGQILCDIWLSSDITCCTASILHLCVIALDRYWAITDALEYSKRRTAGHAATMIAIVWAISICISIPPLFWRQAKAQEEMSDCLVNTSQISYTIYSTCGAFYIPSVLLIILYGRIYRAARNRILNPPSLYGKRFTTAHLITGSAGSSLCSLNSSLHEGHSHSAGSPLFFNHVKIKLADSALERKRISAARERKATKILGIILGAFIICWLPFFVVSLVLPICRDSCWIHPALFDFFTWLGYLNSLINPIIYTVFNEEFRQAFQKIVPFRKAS
# [20] = tested on: Receptor-type tyrosine-protein kinase FLT3 (Homo sapiens), P36888 [R834Q]; conditions: Compound concentration 1000.0 nM
# [21] = target: Serine/threonine-protein kinase SBK1 (Homo sapiens) (UniProt Q52WX2); conditions: Compound concentration 1000.0 nM
# [22] = target: Mitogen-activated protein kinase kinase kinase 2 (Homo sapiens) (UniProt Q9Y2U5); conditions: Compound concentration 1000.0 nM
# [23] = target: Aurora kinase C (Homo sapiens) (UniProt Q9UQB9); conditions: Compound concentration 1000.0 nM
# Sequence of Aurora kinase C (Homo sapiens) (Q9UQB9 whole entry): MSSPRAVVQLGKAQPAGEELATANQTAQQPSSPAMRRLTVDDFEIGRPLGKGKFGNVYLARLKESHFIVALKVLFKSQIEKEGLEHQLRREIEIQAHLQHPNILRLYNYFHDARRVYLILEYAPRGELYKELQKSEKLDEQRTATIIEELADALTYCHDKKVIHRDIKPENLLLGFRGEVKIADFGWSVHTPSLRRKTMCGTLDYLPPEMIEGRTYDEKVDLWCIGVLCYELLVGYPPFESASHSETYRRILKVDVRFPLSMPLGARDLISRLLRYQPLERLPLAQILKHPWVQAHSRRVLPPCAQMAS
# [24] = target: Mitogen-activated protein kinase kinase kinase kinase 1 (Homo sapiens) (UniProt Q92918); conditions: Compound concentration 1000.0 nM
# [25] = target: Serine/threonine-protein kinase RIO1 (Homo sapiens) (UniProt Q9BRS2); conditions: Compound concentration 1000.0 nM
# [26] = target: Serine/threonine-protein kinase PAK 1 (Homo sapiens) (UniProt Q13153); conditions: Compound concentration 1000.0 nM
# Sequence of Serine/threonine-protein kinase PAK 1 (Homo sapiens) (Q13153 whole entry): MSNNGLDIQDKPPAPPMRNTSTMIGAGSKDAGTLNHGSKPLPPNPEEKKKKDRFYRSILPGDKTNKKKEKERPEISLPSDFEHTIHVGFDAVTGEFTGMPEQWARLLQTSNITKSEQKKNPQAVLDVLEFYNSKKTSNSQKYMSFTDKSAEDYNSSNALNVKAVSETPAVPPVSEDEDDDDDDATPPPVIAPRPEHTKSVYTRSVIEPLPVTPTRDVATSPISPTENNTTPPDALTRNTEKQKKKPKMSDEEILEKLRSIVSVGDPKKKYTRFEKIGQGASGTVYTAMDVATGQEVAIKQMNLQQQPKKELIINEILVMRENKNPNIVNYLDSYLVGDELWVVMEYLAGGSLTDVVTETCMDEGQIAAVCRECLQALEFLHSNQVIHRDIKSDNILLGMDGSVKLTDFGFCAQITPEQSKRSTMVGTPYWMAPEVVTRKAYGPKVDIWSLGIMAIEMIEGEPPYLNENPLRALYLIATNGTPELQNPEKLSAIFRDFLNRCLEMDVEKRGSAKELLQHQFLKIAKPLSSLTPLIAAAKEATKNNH
# [27] = target: Cyclin-G-associated kinase (Homo sapiens) (UniProt O14976); conditions: Compound concentration 1000.0 nM
# [28] = target: Serine/threonine-protein kinase LATS2 (Homo sapiens) (UniProt Q9NRM7); conditions: Compound concentration 1000.0 nM
# [29] = target: Dual specificity testis-specific protein kinase 1 (Homo sapiens) (UniProt Q15569); conditions: Compound concentration 1000.0 nM
# [30] = tested on: Phosphatidylinositol 4,5-bisphosphate 3-kinase catalytic subunit alpha isoform (Homo sapiens), P42336 [I800L]; conditions: Compound concentration 1000.0 nM
# [31] = target: Tyrosine-protein kinase ZAP-70 (Homo sapiens) (UniProt P43403); conditions: Compound concentration 1000.0 nM
# [32] = target: Calcium/calmodulin-dependent protein kinase type II subunit delta (Homo sapiens) (UniProt Q13557); conditions: Compound concentration 1000.0 nM
# [33] = target: Ephrin type-A receptor 6 (Homo sapiens) (UniProt Q9UF33); conditions: Compound concentration 1000.0 nM
# [34] = target: Insulin receptor-related protein (Homo sapiens) (UniProt P14616); conditions: Compound concentration 1000.0 nM
# [35] = target: Receptor tyrosine-protein kinase erbB-3 (Homo sapiens) (UniProt P21860); conditions: Compound concentration 1000.0 nM
# [36] = tested on: Tyrosine-protein kinase ABL1 (Homo sapiens), P00519 [F317I]; conditions: Compound concentration 1000.0 nM
# [37] = target: Phosphatidylinositol 3-kinase C2 domain-containing subunit gamma (Homo sapiens) (UniProt O75747); conditions: Compound concentration 1000.0 nM
# Sequence of Phosphatidylinositol 3-kinase C2 domain-containing subunit gamma (Homo sapiens) (O75747 whole entry, the tested form may be a part, canonical isoform): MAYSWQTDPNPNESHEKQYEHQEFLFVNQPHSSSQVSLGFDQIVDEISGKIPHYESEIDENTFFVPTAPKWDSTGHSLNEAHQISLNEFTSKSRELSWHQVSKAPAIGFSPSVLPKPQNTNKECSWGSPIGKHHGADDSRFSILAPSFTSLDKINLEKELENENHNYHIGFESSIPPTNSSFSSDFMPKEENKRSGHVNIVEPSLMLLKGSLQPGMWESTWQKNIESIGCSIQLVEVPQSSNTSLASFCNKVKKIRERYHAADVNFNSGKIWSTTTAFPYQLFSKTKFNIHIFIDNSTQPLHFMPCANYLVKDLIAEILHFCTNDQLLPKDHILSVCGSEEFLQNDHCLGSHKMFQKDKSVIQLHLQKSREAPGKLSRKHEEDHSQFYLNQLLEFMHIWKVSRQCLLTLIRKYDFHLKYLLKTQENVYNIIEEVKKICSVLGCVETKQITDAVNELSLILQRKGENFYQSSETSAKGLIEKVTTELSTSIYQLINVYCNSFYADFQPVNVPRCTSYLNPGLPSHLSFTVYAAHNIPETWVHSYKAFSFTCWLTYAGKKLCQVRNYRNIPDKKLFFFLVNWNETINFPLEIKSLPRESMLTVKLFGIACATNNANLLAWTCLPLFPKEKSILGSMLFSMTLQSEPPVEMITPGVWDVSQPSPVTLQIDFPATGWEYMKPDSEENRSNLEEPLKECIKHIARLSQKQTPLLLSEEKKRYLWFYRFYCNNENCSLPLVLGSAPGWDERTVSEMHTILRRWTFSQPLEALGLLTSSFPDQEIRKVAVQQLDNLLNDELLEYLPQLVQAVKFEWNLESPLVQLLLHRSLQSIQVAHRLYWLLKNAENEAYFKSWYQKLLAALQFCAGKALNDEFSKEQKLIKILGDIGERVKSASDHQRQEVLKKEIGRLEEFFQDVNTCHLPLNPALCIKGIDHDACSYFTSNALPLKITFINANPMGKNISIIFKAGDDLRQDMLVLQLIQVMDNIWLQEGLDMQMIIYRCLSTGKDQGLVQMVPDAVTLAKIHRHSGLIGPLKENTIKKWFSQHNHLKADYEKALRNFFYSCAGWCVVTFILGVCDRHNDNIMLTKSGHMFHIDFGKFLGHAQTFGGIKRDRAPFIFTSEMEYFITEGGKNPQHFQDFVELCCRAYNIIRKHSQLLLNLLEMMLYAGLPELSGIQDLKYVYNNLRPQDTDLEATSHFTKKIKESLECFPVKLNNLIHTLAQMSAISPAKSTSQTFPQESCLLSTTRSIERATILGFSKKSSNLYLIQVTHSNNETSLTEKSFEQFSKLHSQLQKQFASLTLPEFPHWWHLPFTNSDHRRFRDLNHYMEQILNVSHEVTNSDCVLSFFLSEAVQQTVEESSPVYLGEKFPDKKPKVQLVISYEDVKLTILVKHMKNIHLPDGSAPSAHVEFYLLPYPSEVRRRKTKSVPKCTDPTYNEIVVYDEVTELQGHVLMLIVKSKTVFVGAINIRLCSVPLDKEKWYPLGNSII
# [38] = tested on: Phosphatidylinositol 4,5-bisphosphate 3-kinase catalytic subunit alpha isoform (Homo sapiens), P42336 [E545A]; conditions: Compound concentration 1000.0 nM
# [39] = target: Activin receptor type-1-like (Homo sapiens) (UniProt P37023); conditions: Compound concentration 1000.0 nM
# [40] = target: Tyrosine-protein kinase CSK (Homo sapiens) (UniProt P41240); conditions: Compound concentration 1000.0 nM
# Sequence of Tyrosine-protein kinase CSK (Homo sapiens) (P41240 2-450 limits assumed): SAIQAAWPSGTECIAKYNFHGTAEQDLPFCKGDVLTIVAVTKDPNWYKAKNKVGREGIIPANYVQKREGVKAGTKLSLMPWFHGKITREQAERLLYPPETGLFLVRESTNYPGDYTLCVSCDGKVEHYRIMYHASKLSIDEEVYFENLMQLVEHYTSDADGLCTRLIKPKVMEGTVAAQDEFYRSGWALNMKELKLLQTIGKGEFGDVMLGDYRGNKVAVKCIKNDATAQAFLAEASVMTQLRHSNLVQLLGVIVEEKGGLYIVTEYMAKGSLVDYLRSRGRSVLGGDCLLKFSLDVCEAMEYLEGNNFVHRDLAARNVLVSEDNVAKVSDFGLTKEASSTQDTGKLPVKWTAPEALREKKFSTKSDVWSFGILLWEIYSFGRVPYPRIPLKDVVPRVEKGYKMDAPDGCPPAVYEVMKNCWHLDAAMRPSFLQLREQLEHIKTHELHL
# [41] = target: Ankyrin repeat and protein kinase domain-containing protein 1 (Homo sapiens) (UniProt Q8NFD2); conditions: Compound concentration 1000.0 nM
# [42] = target: Casein kinase I isoform alpha (Homo sapiens) (UniProt P48729); conditions: Compound concentration 1000.0 nM
# [43] = target: Citron Rho-interacting kinase (Homo sapiens) (UniProt O14578); conditions: Compound concentration 1000.0 nM
# [44] = target: Proto-oncogene tyrosine-protein kinase ROS (Homo sapiens) (UniProt P08922); conditions: Compound concentration 1000.0 nM
# [45] = target: Serine/threonine-protein kinase D2 (Homo sapiens) (UniProt Q9BZL6); conditions: Compound concentration 1000.0 nM
# Sequence of Cyclin-dependent kinase 2 homolog (Plasmodium falciparum (isolate 3D7)) (P61075 whole entry): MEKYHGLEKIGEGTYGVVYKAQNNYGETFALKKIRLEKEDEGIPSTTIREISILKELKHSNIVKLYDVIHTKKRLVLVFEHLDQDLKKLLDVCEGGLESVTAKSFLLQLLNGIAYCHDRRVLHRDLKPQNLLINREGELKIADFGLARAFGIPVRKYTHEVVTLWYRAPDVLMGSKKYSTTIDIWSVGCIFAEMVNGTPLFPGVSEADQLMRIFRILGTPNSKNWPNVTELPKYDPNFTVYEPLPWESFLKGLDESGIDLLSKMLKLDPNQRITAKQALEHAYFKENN
structure (smiles),measurement,setting,value
O=C(O)[C@@H]1[C@@H](Cn2nnc3ccccc3c2=O)CC[C@H]1C(=O)c1ccc(OCCC2CCOCC2)cc1 [BAY-694],residual activity,[1],100%
same,residual activity,[2],88%
same,residual activity,[3],100%
same,residual activity,[4],98%
same,residual activity,[5],100%
same,residual activity,[6],79%
same,residual activity,[7],86%
same,residual activity,[8],91%
same,residual activity,[9],100%
same,residual activity,[10],100%
same,residual activity,[11],100%
same,residual activity,[12],98%
same,residual activity,[13],100%
same,residual activity,[14],100%
same,residual activity,[15],100%
same,residual activity,[16],100%
same,residual activity,[17],88%
same,residual activity,[18],98%
same,inhibition,[19],14%
same,residual activity,[20],100%
same,residual activity,[21],100%
same,residual activity,[22],100%
same,residual activity,[23],100%
same,residual activity,[24],91%
same,residual activity,[25],100%
same,residual activity,[26],95%
same,residual activity,[27],91%
same,residual activity,[28],100%
same,residual activity,[29],94%
same,residual activity,[30],34%
same,residual activity,[31],99%
same,residual activity,[32],100%
same,residual activity,[33],97%
same,residual activity,[34],100%
same,residual activity,[35],94%
same,residual activity,[36],82%
same,residual activity,[37],95%
same,residual activity,[38],100%
same,residual activity,[39],97%
same,residual activity,[40],90%
same,residual activity,[41],100%
same,residual activity,[42],97%
same,residual activity,[43],92%
same,residual activity,[44],95%
same,residual activity,[45],73%
O=C(O)[C@H]1[C@H](Cn2nnc3ccccc3c2=O)CC[C@@H]1C(=O)c1ccc(OCCC2CCOCC2)cc1 [BAY-7598],residual activity,[1],100%
same,residual activity,[2],84%
same,residual activity,[3],91%
same,residual activity,[4],97%
same,residual activity,[5],82%
same,residual activity,[6],89%
same,residual activity,[7],100%
same,residual activity,[8],100%
same,residual activity,[9],90%
same,residual activity,[10],100%
same,residual activity,[11],74%
same,residual activity,[12],98%
same,residual activity,[13],100%
same,residual activity,[14],100%
same,residual activity,[15],100%
same,residual activity,[16],100%
same,residual activity,[17],82%
same,residual activity,[18],98%
same,inhibition,[19],4.82%
same,residual activity,[20],96%
same,residual activity,[21],68%
same,residual activity,[22],100%
same,residual activity,[23],79%
same,residual activity,[24],87%
same,residual activity,[25],100%
same,residual activity,[26],83%
same,residual activity,[27],100%
same,residual activity,[28],100%
same,residual activity,[29],100%
same,residual activity,[30],73%
same,residual activity,[31],100%
same,residual activity,[32],86%
same,residual activity,[33],85%
same,residual activity,[34],81%
same,residual activity,[35],69%
same,residual activity,[36],86%
same,residual activity,[37],99%
same,residual activity,[38],100%
same,residual activity,[39],85%
same,residual activity,[40],100%
same,residual activity,[41],100%
same,residual activity,[42],82%
same,residual activity,[43],77%
same,residual activity,[44],95%
same,residual activity,[45],73%

# From ChEMBL document CHEMBL4507264, “Data for DCP probe BAY-7598” (2021)
